Measured values from PubChem BioAssay (NCI).
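These data come from cells grown in 96-well plates and exposed to compound for 48 hours at five concentrations. GI50 = concentration required for 50% inhibition of growth. TGI: total growth inhibition.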

Columns and labels:
Experiment in all cases: NCI-60 cell line screen, 48 h
T-47D breast = test system: T-47D breast
UACC-62 melanoma = test system: UACC-62 melanoma
OVCAR-8 ovarian = test system: OVCAR-8 ovarian
COLO 205 colon = test system: COLO 205 colon
HOP-92 NSCLC = test system: HOP-92 NSCLC
SK-MEL-28 melanoma = test system: SK-MEL-28 melanoma
OVCAR-5 ovarian = test system: OVCAR-5 ovarian
HT29 colon = test system: HT29 colon
SF-539 CNS = test system: SF-539 CNS
SF-295 CNS = test system: SF-295 CNS

SMILES	TGI (T-47D breast) [µM]	TGI (UACC-62 melanoma) [µM]	TGI (OVCAR-8 ovarian) [µM]	TGI (COLO 205 colon) [µM]	TGI (HOP-92 NSCLC) [µM]	TGI (SK-MEL-28 melanoma) [µM]	TGI (OVCAR-5 ovarian) [µM]	TGI (HT29 colon) [µM]	TGI (SF-539 CNS) [µM]	TGI (SF-295 CNS) [µM]	GI50 (T-47D breast) [µM]	GI50 (UACC-62 melanoma) [µM]	GI50 (OVCAR-8 ovarian) [µM]	GI50 (HOP-92 NSCLC) [µM]	GI50 (OVCAR-5 ovarian) [µM]	GI50 (HT29 colon) [µM]	GI50 (SF-539 CNS) [µM]	GI50 (COLO 205 colon) [µM]	GI50 (SK-MEL-28 melanoma) [µM]	GI50 (SF-295 CNS) [µM]
CN(CCCNC(=O)c1nn(-c2ccccc2)c2c1Cc1ccccc1-2)CCCNC(=O)c1nn(-c2ccccc2)c2c1Cc1ccccc1-2	3.6	3.26	3.39	2.8	3.26	2.77	3.26	3.42	2.97	–	–	–	–	–	–	–	–	–	–	–
Nc1csc(-c2scc3c2OCCO3)c1N	–	45.1	40.1	91.4	71.8	49.5	39.9	52.6	47.4	38.3	–	–	–	–	–	–	–	–	–	–
COc1ccc2c3c([nH]c2c1)[C@H](C=C(C)C)N1C(=O)[C@@H]2CCCN2C(=O)[C@@H]1C3	> 100	> 100	> 100	> 100	> 100	55.5	> 100	> 100	83	> 100	–	–	–	–	–	–	–	–	–	–
CC(C)(C)COS(=O)OCC(C)(C)C	> 100	> 100	> 100	> 100	> 100	> 100	> 100	> 100	> 100	> 100	–	–	–	–	–	–	–	–	–	–
CCC1=C(CC2NCCc3cc(OC)c(OC)cc32)CC2c3ccccc3CCN2C1 (stereo not drawn)	54.5	28.8	> 100	21.8	42.6	29	> 100	20.6	21.4	76.3	–	–	–	–	–	–	–	–	–	–
CC(NC(=O)c1ccc(OP(=O)(OCc2ccc([N+](=O)[O-])o2)N(C)CCCCCl)cc1)c1ccc(OCC2CCCCC2)c(C(N)=O)c1 (stereo not drawn)	> 20.1	7.39	> 74.4	6.24	4.75	7	> 47.6	7.85	10.1	> 32.4	–	–	–	–	–	–	–	–	–	–
OC1CCSc2ccccc21 (stereo not drawn)	–	> 100	> 100	> 100	–	> 100	> 100	> 100	> 100	–	–	–	–	–	–	–	–	–	–	–
CS(=O)(=O)Nc1cccc(-c2ccc3ncnc(Nc4cncc(Cl)c4)c3c2)c1	6.36	3.86	> 100	–	26.8	–	> 100	4.65	5.82	–	0.726	1.75	3.22	1.83	2.05	1.85	2.06	–	–	–
CN(CCCN1CCCC1)CCCN(C)C(=O)Cc1ccc(Cl)c(Cl)c1	45.9	5.04	> 100	41.2	35.9	5.26	78.1	17.5	> 53.2	36.2	–	–	–	–	–	–	–	–	–	–
O=C(NN1CCCCC1)c1cc2cc(CCl)ccc2oc1=O	48.7	85.8	54.8	36	22.9	> 100	31.8	33	> 100	42	–	–	–	–	–	–	–	–	–	–
CC12OC(C(=O)C13CCC3)C1C(=O)c3c(O)ccc(O)c3C(=O)C12 (stereo not drawn)	3.2	> 36.6	18.1	> 100	–	6.35	4.29	> 51.6	15.8	10.3	0.948	3.56	7.04	–	2.14	0.897	2.99	3.14	2.49	–
c1ccc(C[N+]23C(CC[C@H]2c2ccccc2)CC[C@H]3c2ccccc2)cc1 (stereo partly drawn)	> 100	–	> 100	31.2	52.3	> 100	> 100	> 100	–	> 100	–	–	–	–	–	–	–	–	–	–
COc1cc(S(=O)(=O)Nc2ccc(-c3csc(/N=C\c4cccc(Oc5ccccc5)c4)n3)cc2)ccc1Cl	34.4	25.1	61.9	> 100	58.6	> 100	> 100	> 100	> 100	> 100	–	–	–	–	–	–	–	–	–	–
COc1cc2cc[n+](C)c(Cc3ccc(Oc4cc(Cc5c6cc(OC)c(OC)cc6cc[n+]5C)ccc4OC)cc3)c2cc1OC	> 100	> 100	> 100	> 100	> 100	> 100	> 100	> 100	> 100	> 100	–	–	–	–	–	–	–	–	–	–
Clc1cccc(/C=c2\nc(-c3ccccc3)n3c2nc2ccccc23)c1	–	> 100	> 100	> 100	48.4	> 100	> 100	> 100	> 100	> 100	–	–	–	–	–	–	–	–	–	–
Cc1ccc(S(=O)(=O)Nc2cc(=O)[nH]c3c2CCC3)cc1	> 100	> 100	> 100	> 100	> 100	> 100	> 100	> 100	> 100	> 100	–	–	–	–	–	–	–	–	–	–

SMILES	TGI (T-47D breast) [µM]	TGI (UACC-62 melanoma) [µM]	TGI (OVCAR-8 ovarian) [µM]	TGI (COLO 205 colon) [µM]	TGI (HOP-92 NSCLC) [µM]	TGI (SK-MEL-28 melanoma) [µM]	TGI (OVCAR-5 ovarian) [µM]	TGI (HT29 colon) [µM]	TGI (SF-539 CNS) [µM]	TGI (SF-295 CNS) [µM]	GI50 (T-47D breast) [µM]	GI50 (UACC-62 melanoma) [µM]	GI50 (OVCAR-8 ovarian) [µM]	GI50 (HOP-92 NSCLC) [µM]	GI50 (OVCAR-5 ovarian) [µM]	GI50 (HT29 colon) [µM]	GI50 (SF-539 CNS) [µM]	GI50 (COLO 205 colon) [µM]	GI50 (SK-MEL-28 melanoma) [µM]	GI50 (SF-295 CNS) [µM]
Cc1ccc([N+](=O)[O-])cc1S(=O)(=O)Nc1ccc(C2=NN(C(=O)c3ccccc3)C(c3ccccc3O)C2)cc1 (stereo not drawn)	30.1	–	57.7	31.9	26.4	> 100	60.6	62.5	38.4	> 100	–	–	–	–	–	–	–	–	–	–
CN(CCc1ccccn1)c1ccc2c(c1)Cc1ccccc1-2	92.5	> 100	77.8	41.4	31.9	> 100	> 100	> 100	–	41.1	–	–	–	–	–	–	–	–	–	–
C=C(CN(C)C)C(=O)c1ccccc1Cl	–	34.2	45.2	29.3	31.1	19.4	> 60.4	34.4	> 54.6	> 100	–	–	–	–	–	–	–	–	–	–
CCCCSCCC(N)P(=O)(O)O (stereo not drawn)	> 100	–	> 100	> 100	> 100	> 100	> 100	> 100	–	> 100	–	–	–	–	–	–	–	–	–	–
Oc1ccc(Cl)cc1C1=Nn2c(COc3ccc4c(c3)CCCC4)nnc2SC1	34.3	25.4	30.9	31.3	18.1	14.4	34.6	–	33.4	29.7	–	–	–	–	–	–	–	–	–	–
O=C1CNc2cc(N3CCCCC3)ccc2N1	> 100	> 100	> 100	–	> 100	> 100	> 100	24.4	> 100	> 100	–	–	–	–	–	–	–	–	–	–
CN(CCN1C(=O)c2cccc3cccc(c23)C1=O)CCN1C(=O)c2cccc3cccc(c23)C1=O	10.2	> 100	19.2	16.5	–	> 100	> 100	> 100	> 100	29	–	–	–	–	–	–	–	–	–	–
COc1cc(/C=C2\CC3C4CC[C@H]5C[C@@H](O)CC[C@]5(C)C4CC[C@]3(C)\C2=N\O)cc(OC)c1OC (stereo partly drawn)	36.9	35	> 100	29.4	> 100	66.9	> 100	> 100	34.1	15.4	–	–	–	–	–	–	–	–	–	–
O=S(C(c1ccccc1)=P(c1ccccc1)(c1ccccc1)c1ccccc1)c1ccc(Cl)cc1 (stereo not drawn)	> 100	–	> 100	–	42.2	> 100	> 100	> 100	> 100	> 100	–	–	–	–	–	–	–	–	–	–
CS(=O)(=O)Nc1ccc(NCc2cnc3ccc4[nH]cccc4c23)cc1	66.6	30.7	> 100	36.2	> 100	66.4	> 100	> 100	68.3	> 100	–	–	–	–	–	–	–	–	–	–
O=C1/C(=C/c2ccc([N+](=O)[O-])cc2)Sc2scc(-c3cccc([N+](=O)[O-])c3)[n+]21	24.3	29.9	> 54.9	3.69	13.8	–	24.8	9.35	6.44	29.3	–	–	–	–	–	–	–	–	–	–
C#C[C@]1(O)[C@@H](CO)O[C@@H](n2ccc(=O)[nH]c2=O)[C@@H]1O	1.9	3.56	> 100	0.173	–	31.3	> 100	> 100	1.39	> 45.2	–	–	–	–	–	–	–	–	–	–
NC(N)=N/N=C/c1c(-c2cccs2)nc2n1CCS2	37.3	26.4	> 100	40.4	–	–	–	30.9	33.3	30.6	17.5	13.5	46.5	–	–	17.2	19.2	18.1	–	14
CCOC(=O)c1cccc(N=Nc2ncc(/C=C/C(=O)OC)[nH]2)c1	89.7	63.2	63.6	49	> 100	> 100	> 100	> 100	> 100	63.2	–	–	–	–	–	–	–	–	–	–
COc1ccc(-n2nc(C(=O)c3ccccc3)c3nn4c(=O)cc(-c5ccccc5)nc4nc32)cc1	> 100	97.6	> 100	> 100	> 100	> 100	–	> 100	> 100	85.2	32.4	28.4	40.1	37.4	–	32.2	41.8	29.1	38.3	28.9
